Results as given in PubChem BioAssay AID1963843 (Molecular Pharmacology Branch, DTP, NCI, 2024).
Values joined by “and” are separate entries in the source; they are usually repeats but may differ in a detail not shown here. Identical values can stand only once.

System: 616215-338-R-J1-PDC complex spheroid viability
Assay: Anticancer human tumor 616215-338-R-J1-PDC patient-derived colon adenocarcinoma cell line growth inhibition [POLQ]
Conditions: for viability, T/C: stronger effect = lower value; for IC50: curve of compound
Protocol: Multicellular complex tumor spheroid response to Polymerase (POL) inhibitors (novobiocin, ART-558, RP6685) in combination with a variety of drugs and investigational agents in selected tumor cell lines
The POL inhibitors (novobiocin, ART-558, and RP6685) were evaluated both individually and in combination with standard of care and investigational anticancer small molecules within a complex spheroid model of solid tumors. . Complex spheroids include a stromal component modeled by human endothelial cells (HUVEC) and fibroblasts modeled by human mesenchymal stem cells (MSCs). The concentration ranges selected for each drug and investigational agent were based upon clinically achievable concentrations if the clinical Cmax of the agent was known.
Compounds. The drugs and investigational agents: novobiocin (NSC847541), ART-558 (NSC835418), RP-6685 (NSC848927), peposertib (NSC802822), ceralasertib (NSC780249), elimusertib (NSC800525), camonsertib (NSC841442), AZD-1390 (NSC803789), olaparib (NSC753686), talazoparib (NSC767125), rucaparib (NSC756644), sotorasib (NSC818433), MRTX-1133 (NSC836407), SN-38 (NSC673596), topotecan (NSC609699), epotoside (NSC141540), doxorubicin (NSC123127), gemcitabine (NSC613327), 5-fluorouracil (NSC19893), paclitaxel (NSC125973), vemurafenib (NSC761431), MSA-2 (NSC828583), SN-011 (NSC837082), adavosertib (NSC754352), prexasertib (NSC758257), carboplatin (NSC241240) and oxaliplatin (NSC266046), were obtained from the National Cancer Institute (NCI) Developmental Therapeutics Program Chemical Repository (21). The FDA-approved anticancer drug set is available from the Developmental Therapeutics Program at https://dtp.cancer.gov/organization/dscb/obtaining/. […] The stock solutions were prepared in dimethyl sulfoxide (DMSO, Sigma-Aldrich, St. Louis, MO, cat. D2650), except for the platinum compounds which were prepared in saline (Quality Biological, Gaithersburg, MD, cat. 114-055-101), at 800-fold the tested concentration and stored at -70 degrees C prior to their use. All drugs and investigational agents were tested over a range starting from a high concentration at or near the clinical Cmax and decreasing in half-log increments. If the clinical Cmax for an agent had not been determined, the highest concentration tested was 10 microM, except for SN-38, which was tested at a high concentration of 1 microM.
Cell Culture. All cells were maintained in an incubator at 37 degrees C and 5% CO2 with 95% humidity. The PDC lines were cultured according to standard operating procedures established by the NCI PDMR (https://pdmr.cancer.gov). Table 3 of the manuscript, lists the cell lines along with the number of the three cell types plated to form the mct-spheroids and media for tumor cell growth. After thawing, all PDC lines, except 997537-175-T-J1-PDC and 415267-285-R-J2-PDC, were cultured in Matrigel-coated flasks prepared with a working solution of 1X Ham's F-12 nutrient mix, without supplementation (Thermo Fisher Scientific, cat. 11765054), 100 U/mL penicillin-streptomycin (Thermo Fisher Scientific, cat. 15140122), and 2.5% Matrigel (Corning Inc., Corning, NY, cat. 354248) for the first three passages. The two PDC lines 997537-175-T-J1-PDC and 415267-285-R-J2-PDC were cultured on uncoated flasks. The 857933-349-R-J2-PDC line was cultured in 6C/Colon 1B media containing advanced DMEM/F-12 (Thermo Fisher Scientific, cat. 12634028), 10 mM HEPES (Thermo Fisher Scientific, cat. 15630080), 1X GlutaMAX supplement (Thermo Fisher Scientific, cat. 35050061), 0.1 mg/mL primocin (InvivoGen, San Diego, CA, cat. ant-pm-2), 10% defined fetal bovine serum, heat inactivated (HyClone Laboratories Inc., Logan, UT, cat. SH30070.03HI), 50% L-WRN conditioned media (ATCC, cat. CRL-3276), 1.25 mM N-Acetyl-L-cysteine (Sigma-Aldrich, cat. A9165), 10 mM nicotinamide (Sigma-Aldrich, cat. N0636), 1X B-27 supplement (Thermo Fisher Scientific, cat. 17504044), 1X N-2 supplement (Thermo Fisher Scientific, cat. […]
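Further: spheroids exposed to compounds for one week before readout.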
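Wherever viability, T/C is given: percent viability relative to DMSO vehicle wells taken as 100%.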

In the case of `C#Cc1c(F)ccc2cc(O)cc(-c3ncc4c(N5CC6CCC(C5)N6)nc(OCC56CCCN5CC(F)C6)nc4c3F)c12` (stereo not given), the viability, T/C (compound 0.0316 µM) is reported as 101% (2×) and 104%, the viability, T/C (compound 0.1 µM) is reported as 90.4% and 90.9% and 90.6% and the viability, T/C (compound 0.316 µM) is reported as 104% and 103% and 97.6%. For the same compound, the viability, T/C (compound 1 µM) was 107% and 71.8% and 104%, the viability, T/C (compound 3.16 µM) was 109% and 54.8% and 93.5% and the viability, T/C (compound 10 µM) was 72.4% and 33.1% and 66.3%. For the same compound, the IC50 was > 10 µM and 3.54 µM.

`C=CC(=O)N1CCN(c2nc(=O)n(-c3c(C)ccnc3C(C)C)c3nc(-c4c(O)cccc4F)c(F)cc23)C(C)C1` (stereo not given) was tested, and the viability, T/C (compound 0.0316 µM) was 104% and 100% and 91.5%, the viability, T/C (compound 0.1 µM) was 94.8% and 103% and 100% and the viability, T/C (compound 0.316 µM) was 97.3% and 99.3% and 98.2%. The viability, T/C (compound 1 µM) was 97.3% and 97.5% and 99.1%, the viability, T/C (compound 3.16 µM) was 103% and 90.9% and 104% and the viability, T/C (compound 10 µM) was 87.7% and 66.7% and 91.4%. The IC50 was greater than 10 µM.

In the case of `C=CCn1c(=O)c2cnc(Nc3ccc(N4CCN(C)CC4)cc3)nc2n1-c1cccc(C(C)(C)O)n1`, the viability, T/C (compound 0.00316 µM) is reported as 98.4% and 98.6% and 104%, the viability, T/C (compound 0.01 µM) is reported as 101% and 96.2% and 96.8% and the viability, T/C (compound 0.0316 µM) is reported as 105% and 102% and 99.9%. For the same compound, the viability, T/C (compound 0.1 µM) was 93.8% and 88.6% and 96.6%, the viability, T/C (compound 0.316 µM) was 88.4% and 64% and 54.5% and the viability, T/C (compound 1 µM) was 60.4% and 31.4% and 34.6%. For the same compound, the IC50 was > 1 µM and 0.516 µM and 0.41 µM.

In the case of `CC(=O)O[C@H]1C(=O)[C@@]2(C)[C@H]([C@H](OC(=O)c3ccccc3)[C@]3(O)C[C@H](OC(=O)[C@H](O)[C@@H](NC(=O)c4ccccc4)c4ccccc4)C(C)=C1C3(C)C)[C@]1(OC(C)=O)CO[C@@H]1C[C@@H]2O`, the viability, T/C (compound 0.00949 µM) is reported as 39.3% and 41.7% and 86.3%, the viability, T/C (compound 0.03 µM) is reported as 23.3% and 27.1% and 44.5% and the viability, T/C (compound 0.0949 µM) is reported as 23.8% and 24.4% and 38.2%. For the same compound, the viability, T/C (compound 0.3 µM) was 15.6% and 17.9% and 35.5%, the viability, T/C (compound 0.949 µM) was 18% and 18.2% and 36.7% and the viability, T/C (compound 3 µM) was 21.7% and 17.8% and 34.3%. For the same compound, the IC50 was < 0.00949 µM and 0.0258 µM.

With `CC(C)n1c(=O)n(C)c2cnc3cc(F)c(-c4ccc(OCCCN5CCCCC5)nc4)cc3c21` the viability, T/C (compound 0.0316 µM) was 112% and 102% and 72.9%, the viability, T/C (compound 0.1 µM) was 97% and 109% and 75% and the viability, T/C (compound 0.316 µM) was 106% and 93% and 74.8%. The viability, T/C (compound 1 µM) was 107% and 94.6% and 79.2%, the viability, T/C (compound 3.16 µM) was 108% and 101% and 85.2% and the viability, T/C (compound 10 µM) was 101% and 96% and 72.1%. For the same compound, the IC50 was greater than 10 µM.

In the case of `CC1COCCN1c1cc(-c2ccnn2C)c2ccnc(-c3ccn[nH]3)c2n1` (stereo not given), the viability, T/C (compound 0.0316 µM) is reported as 95.3% and 98.7% and 94%, the viability, T/C (compound 0.1 µM) is reported as 102% and 90.3% and 66% and the viability, T/C (compound 0.316 µM) is reported as 73.7% and 70.5% and 39.4%. For the same compound, the viability, T/C (compound 1 µM) was 60.4% and 47.1% and 31.4%, the viability, T/C (compound 3.16 µM) was 50% and 27.1% and 28.4% and the viability, T/C (compound 10 µM) was 44.6% and 40.1% and 21.7%.

`CC1COCCN1c1cc(C2(O)CC3CCC(C2)O3)c2cnn(-c3ccn[nH]3)c2n1` (stereo not given) was tested, and the viability, T/C (compound 0.0316 µM) was 99.2% and 95.5% and 88%, the viability, T/C (compound 0.1 µM) was 91.8% and 93% and 73.8% and the viability, T/C (compound 0.316 µM) was 73.3% and 70.1% and 46.3%. For the same compound, the viability, T/C (compound 1 µM) was 76.6% and 53.7% and 34.7%, the viability, T/C (compound 3.16 µM) was 54% and 46% and 21% and the viability, T/C (compound 10 µM) was 40.1% and 32.2% and 19.3%.

With `CC1COCCN1c1cc(C2(S(C)(=N)=O)CC2)nc(-c2ccnc3[nH]ccc23)n1` (stereo not given) the viability, T/C (compound 0.0316 µM) was 99.9% and 97.9% and 100%, the viability, T/C (compound 0.1 µM) was 107% and 90.8% and 112% and the viability, T/C (compound 0.316 µM) was 95.8% and 93.9% and 108%. For the same compound, the viability, T/C (compound 1 µM) was 99.2% and 99.4% and 95.3%, the viability, T/C (compound 3.16 µM) was 99% and 74.6% and 107% and the viability, T/C (compound 10 µM) was 71.5% and 39.9% and 74.1%. For the same compound, the IC50 was > 10 µM and 7.18 µM.

For `CCCS(=O)(=O)Nc1ccc(F)c(C(=O)c2c[nH]c3ncc(-c4ccc(Cl)cc4)cc23)c1F`, the viability, T/C (compound 0.0316 µM) was 106% and 102% and 108%, the viability, T/C (compound 0.1 µM) was 97.4% and 107% (2×) and the viability, T/C (compound 0.316 µM) was 105% and 102% and 97.8%. For the same compound, the viability, T/C (compound 1 µM) was 107% and 102% and 95.8%, the viability, T/C (compound 3.16 µM) was 101% (2×) and 91.2% and the viability, T/C (compound 10 µM) was 10.8% and 13.5% and 20.5%. The IC50 was 6.07 µM and 6.2 µM and 6.12 µM.

In the case of `CC[C@@]1(O)C(=O)OCc2c1cc1n(c2=O)Cc2cc3c(CN(C)C)c(O)ccc3nc2-1`, the viability, T/C (compound 0.000316 µM) is reported as 83.5% and 113% and 93.4%, the viability, T/C (compound 0.001 µM) is reported as 99.2% and 100% and 96.4% and the viability, T/C (compound 0.00316 µM) is reported as 99.6% and 109% and 96.2%. The viability, T/C (compound 0.01 µM) was 97.7% and 101% and 110%, the viability, T/C (compound 0.0316 µM) was 111% and 70.1% and 103% and the viability, T/C (compound 0.1 µM) was 82.6% and 39% and 93.5%. The IC50 was > 0.1 µM and 0.0666 µM.

`CCc1c2c(nc3ccc(O)cc13)-c1cc3c(c(=O)n1C2)COC(=O)[C@]3(O)CC` was tested, and the viability, T/C (compound 0.00316 µM) was 96.8% and 81.2% and 106%, the viability, T/C (compound 0.01 µM) was 92.7% and 44.1% and 89.9% and the viability, T/C (compound 0.0316 µM) was 66.5% and 33.8% and 61.6%. For the same compound, the viability, T/C (compound 0.1 µM) was 51.2% and 26.8% and 51.4%, the viability, T/C (compound 0.316 µM) was 29.8% and 16.6% and 34.1% and the viability, T/C (compound 1 µM) was 16.3% and 9.67% and 18%.

In the case of `CCc1cc2c(N3CCc4c(cc(Cn5ccnc5)cc4-c4cn(C)nc4C(F)(F)F)C3=O)cc(C)nc2c(OC)n1`, the viability, T/C (compound 0.0316 µM) is reported as 111% and 112% and 115%, the viability, T/C (compound 0.1 µM) is reported as 99.7% and 102% and 100% and the viability, T/C (compound 0.316 µM) is reported as 103% and 79.5% and 78.1%. For the same compound, the viability, T/C (compound 1 µM) was 98.2% and 62.6% and 69.1%, the viability, T/C (compound 3.16 µM) was 62.3% and 54.4% and 53.4% and the viability, T/C (compound 10 µM) was 51.3% and 41.3% and 39.7%. For the same compound, the IC50 was > 10 µM and 3.64 µM and 4.13 µM.

In the case of `CCc1cc2c(N3CCc4c(cc(Cn5ccnc5)cc4-c4cn(C)nc4C(F)(F)F)C3=O)ccnc2c(OC)n1`, the viability, T/C (compound 0.0316 µM) is reported as 93.8% and 107% and 110%, the viability, T/C (compound 0.1 µM) is reported as 106% and 93.5% and 101% and the viability, T/C (compound 0.316 µM) is reported as 111% and 89.7% and 94.4%. The viability, T/C (compound 1 µM) was 107% and 75.4% and 60.1%, the viability, T/C (compound 3.16 µM) was 79.1% and 52.8% and 53.1% and the viability, T/C (compound 10 µM) was 49.8% and 47.7% and 43.4%. For the same compound, the IC50 was > 10 µM and 6.52 µM and 2.81 µM.

In the case of `CNCc1ccc(-c2[nH]c3cc(F)cc4c3c2CCNC4=O)cc1`, the viability, T/C (compound 0.0316 µM) is reported as 92.7% and 108% and 87.4%, the viability, T/C (compound 0.1 µM) is reported as 99.1% and 101% and 106% and the viability, T/C (compound 0.316 µM) is reported as 102% and 104% and 96.3%. The viability, T/C (compound 1 µM) was 96.4% and 106% and 107%, the viability, T/C (compound 3.16 µM) was 103% and 107% and 96.9% and the viability, T/C (compound 10 µM) was 90.2% and 26.3% and 83.5%. The IC50 was > 10 µM and 7.08 µM.
